From US20220348592A1, “FUSED HETEROCYCLIC DERIVATIVES” (Janssen Sciences Ireland Unlimited Company, priority 2019, published 2022)
Like-named read-outs stand apart in the source and are kept apart here.

Assays:
HBV = experiment: Anti-HBV activity: intracellular HBV DNA by real-time PCR in HepG2.117 cell line; format: cell-based, Hepatitis B virus; details: Hepatitis B virus, read-out: HBV-AVE-HepG2.117 EC50 (μM, mean value)
Procedure, shortened: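 HepG2.117 cells, a Tet-off inducible HBV-producing line, induced to replicate HBV and then treated with serially diluted compound. After 3 days, intracellular HBV DNA quantified by real-time PCR with HBV-specific primers and probe.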

[1] = Cytotoxicity in HepG2.117 cells, ATPlite Luminescence Assay; format: cell-based, human; details: human, incubated for 3 days, mean value, read-out: TOX-HepG2.117 CC50 (μM, mean value)
Experimental: Cytotoxicity of the compounds was tested using HepG2 or HepG2.117 cells, incubated for 3 days in the presence of compounds. The viability of the cells was assessed using the PERKIN ELMER ATPlite Luminescence Assay System.”

[2] = 72 h, HepG2.117 cells, 3 days of treatment, intracellular HBV DNA by real-time PCR, mean value

SMILES	EC50 (HBV; HepG2.117, 72 h)	CC50 at 3 days [1]	EC50 (HBV; [2])
CC(C)CN1CCCn2nc3c(c2C1=O)CN(C(=O)c1ccc(Cl)c(Cl)c1)[C@H](C)C3 [Compound 39, (3R)-2-(3,4-Dichlorobenzoyl)-3-methyl-10-(2-methylpropyl)-1,2,3,4,7,8,9,10-octahydro-11H-pyrido[4′,3′:3,4]pyrazolo[1,5-a][1,4]diazepin-11-one]	2.49 µM	> 50 µM	
C[C@@H]1Cc2nn3c(c2CN1C(=O)c1ccc(Cl)c(Cl)c1)C(=O)N(Cc1c(F)cncc1F)CC3 [Example C197]		> 50 µM	0.24 µM
C[C@@H]1Cc2nn3c(c2CN1C(=O)c1ccc(Cl)c(Cl)c1)C(=O)N(Cc1nc(Cl)ccc1F)CC3 [Example C199]		> 50 µM	0.33 µM
C[C@@H]1Cc2nn3c(c2CN1C(=O)c1ccc(Cl)c(Cl)c1)C(=O)N(Cc1cn(C2CC2)nn1)CC3 [Example C239]		> 50 µM	0.154 µM
CC(c1ccccn1)N1CCn2nc3c(c2C1=O)CN(C(=O)c1ccc(Cl)c(Cl)c1)[C@H](C)C3 (some centres unmarked) [Example C99]		> 50 µM	0.072 µM
C[C@@H]1Cc2nn3c(c2CN1C(=O)c1cc2c(C(F)F)c(F)ccc2[nH]1)C(=O)N(Cc1ccccn1)CC3 [Example C124]		26.7 µM	0.011 µM
C[C@@H]1Cc2nn3c(c2CN1C(=O)c1ccc(Cl)c(Cl)c1)C(=O)N(Cc1cc(F)cc(C#N)c1)CC3 [Example C230]		> 12.5 µM	0.045 µM
C=C1CN(C)C(=O)c2c3c(nn2C1)C[C@@H](C)N(C(=O)c1ccc(Cl)c(Cl)c1)C3 [Compound 42, (3R)-2-(3,4-Dichlorobenzoyl)-3,10-dimethyl-8-methylidene-1,2,3,4,7,8,9,10-octahydro-11H-pyrido[4′,3′:3,4]pyrazolo[1,5-a][1,4]diazepin-11-one]		1.44 µM	0.308 µM
Cc1cc(CN2CCn3nc4c(c3C2=O)CN(C(=O)c2ccc(Cl)c(Cl)c2)[C@H](C)C4)nn1C [Example C157]		> 50 µM	0.02 µM
CC(c1cc(F)ccc1F)N1CCn2nc3c(c2C1=O)CN(C(=O)c1ccc(Cl)c(Cl)c1)[C@H](C)C3 (some centres unmarked) [Example C189]		41.8 µM	0.043 µM
CC(C)Cc1nnc(C(C)N2CCn3nc4c(c3C2=O)CN(C(=O)c2ccc(Cl)c(Cl)c2)[C@H](C)C4)o1 (some centres unmarked) [Example C187]		> 50 µM	0.155 µM
C[C@@H]1Cc2nn3c(c2CN1C(=O)c1ccc(Cl)c(Cl)c1)C(=O)N(Cc1ncnn1C)CC3 [Example C144]		> 50 µM	> 2.5 µM
C[C@@H]1Cc2nn3c(c2CN1C(=O)c1ccc(Cl)c(Cl)c1)C(=O)N(Cc1cccc(F)c1C#N)CC3 [Example C95]		> 47 µM	0.2 µM
C[C@@H]1Cc2nn3c(c2CN1C(=O)c1ccc(Cl)c(Cl)c1)C(=O)N(Cc1cccc(OC(F)F)c1)CC3 [Example C66]		9.18 µM	0.042 µM
CC(c1nc(C2CC2)no1)N1CCn2nc3c(c2C1=O)CN(C(=O)c1ccc(Cl)c(Cl)c1)[C@H](C)C3 (some centres unmarked) [Example C190]		33.1 µM	0.115 µM
CC(c1ccccc1C#N)N1CCn2nc3c(c2C1=O)CN(C(=O)c1ccc(Cl)c(Cl)c1)[C@H](C)C3 (some centres unmarked) [Example C129]		> 50 µM	0.143 µM
C[C@@H]1Cc2nn3c(c2CN1C(=O)c1ccc(Cl)c(Cl)c1)C(=O)N(Cc1ccccn1)CC3 [Compound 15, (3R)-2-(3,4-Dichlorobenzoyl)-3-methyl-9-[(pyridin-2-yl)methyl]-1,2,3,4,8,9-hexahydropyrido-[4′,3′:3,4]pyrazolo[1,5-a]pyrazin-10(71)-one]		> 50 µM	0.055 µM
COc1cccc(C(C)N2CCn3nc4c(c3C2=O)CN(C(=O)c2ccc(Cl)c(Cl)c2)[C@H](C)C4)c1 (some centres unmarked) [Example C131]		19.6 µM	0.038 µM
O=C(c1ccc(Cl)c(Cl)c1)N1CCc2nn3c(c2C1)C(=O)N(Cc1ccccn1)CCC3 [Example C83, 2-(3,4-dichlorobenzoyl)-10-(pyridin-2-ylmethyl)-1,2,3,4,7,8,9,10-octahydro-11H-pyrido[4′,3′:3,4]pyrazolo[1,5-a][1,4]diazepin-11-one]		> 50 µM	0.229 µM
Cc1nnc(C(C)N2CCn3nc4c(c3C2=O)CN(C(=O)c2ccc(Cl)c(Cl)c2)[C@H](C)C4)s1 (some centres unmarked) [Example C245]		> 50 µM	0.072 µM
C=C1CN(CC(F)(F)F)C(=O)c2c3c(nn2C1)CCN(C(=O)c1ccc(Cl)c(Cl)c1)C3 [Compound 43, 2-(3,4-Dichlorobenzoyl)-8-methylidene-10-(2,2,2-trifluoroethyl)-1,2,3,4,7,8,9,10-octahydro-11H-pyrido[4′,3′:3,4]pyrazolo[1,5-a][1,4]diazepin-11-one]		> 50 µM	0.21 µM
C[C@@H]1Cc2nn3c(c2CN1C(=O)c1cc2c(C(F)(F)F)c(F)ccc2[nH]1)C(=O)N(Cc1ccccn1)CC3 [Example C125]		> 50 µM	0.037 µM
COc1ccc(CN2CCn3nc4c(c3C2=O)CN(C(=O)c2ccc(F)c(C)c2)CC4)cc1 [Example C49]		20.6 µM	0.274 µM

SMILES	EC50 (HBV; HepG2.117, 72 h)	CC50 at 3 days [1]	EC50 (HBV; [2])
COc1ccc(CN2CCn3nc4c(c3C2=O)CN(C(=O)c2ccc(Cl)c(Cl)c2)[C@H](C)C4)c(F)c1 [Example C168]		6.11 µM	0.046 µM
Cc1ccc(F)c2[nH]c(C(=O)N3Cc4c(nn5c4C(=O)N(Cc4ccccn4)CC5)C[C@H]3C)cc12 [Example C114]		30.9 µM	0.048 µM
Cc1ocnc1CN1CCn2nc3c(c2C1=O)CN(C(=O)c1ccc(Cl)c(Cl)c1)[C@H](C)C3 [Example C229]		> 25 µM	0.438 µM
C[C@@H]1Cc2nn3c(c2CN1C(=O)c1ccc(Cl)c(Cl)c1)C(=O)N(Cc1cnn(C)c1)CC3 [Example C147]		> 50 µM	0.054 µM
C[C@@H]1Cc2nn3c(c2CN1C(=O)c1ccc(Cl)c(Cl)c1)C(=O)N(C)C[C@@H](F)C3 [Compound 44]		> 50 µM	0.079 µM
C[C@@H]1Cc2nn3c(c2CN1C(=O)c1ccc(Cl)c(Cl)c1)C(=O)N([C@@H](C)c1ccc(F)cc1)CC3 [Compound 26, (3R)-2-(3,4-Dichlorobenzoyl)-9-[(1S)-1-(4-fluorophenyl)ethyl]-3-methyl-1,2,3,4,8,9-hexahydro-pyrido[4′,3′:3,4]pyrazolo[1,5-a]pyrazin-10(7H)-one]		26.2 µM	0.028 µM
COc1ccc(CN2CCn3nc4c(c3C2=O)CN(C(=O)c2cccc(Cl)c2)CC4)cc1 [Example C54]		13.6 µM	1.99 µM
Cc1ncc(CN2CCn3nc4c(c3C2=O)CN(C(=O)c2ccc(Cl)c(Cl)c2)[C@H](C)C4)o1 [Example C209]		> 50 µM	> 2.5 µM
Cc1cccnc1CN1CCn2nc3c(c2C1=O)CN(C(=O)c1ccc(Cl)c(Cl)c1)[C@H](C)C3 [Example C152]		> 50 µM	0.145 µM
CC(c1ccc(Cl)nc1)N1CCn2nc3c(c2C1=O)CN(C(=O)c1ccc(Cl)c(Cl)c1)[C@H](C)C3 (some centres unmarked) [Example C130]		33.7 µM	0.082 µM
C[C@@H]1Cc2nn3c(c2CN1C(=O)c1ccc(Cl)c(Cl)c1)C(=O)N(Cc1ccc(C#N)cc1C(F)(F)F)CC3 [Example C170]		> 50 µM	0.432 µM
C[C@@H]1Cc2nn3c(c2CN1C(=O)c1ccc(Cl)c(Cl)c1)C(=O)N(Cc1cc(C#N)ccc1F)CC3 [Example C180]		> 50 µM	0.123 µM
C[C@@H]1Cc2nn3c(c2CN1C(=O)c1ccc(Cl)c(Cl)c1)C(=O)N(Cc1ccc(C#N)c(F)c1)CC3 [Example C238]		39.9 µM	0.029 µM
O=C(c1ccc(Cl)c(Cl)c1)N1CCc2nn3c(c2C1)C(=S)NCCC3 [Compound 48, (3,4-dichlorophenyl)(11-sulfanylidene-1,3,4,7,8,9,10,11-octahydro-2H-pyrido[4′,3′:3,4]pyrazolo-[1,5-a][1,4]diazepin-2-yl)methanone]		> 50 µM	1.23 µM
CC(C)n1ccc(CN2CCn3nc4c(c3C2=O)CN(C(=O)c2ccc(Cl)c(Cl)c2)[C@H](C)C4)n1 [Example C137]		> 50 µM	0.056 µM
Cc1conc1CN1CCn2nc3c(c2C1=O)CN(C(=O)c1ccc(Cl)c(Cl)c1)[C@H](C)C3 [Example C236]		> 51 µM	0.325 µM
Cc1nnc(C(C)N2CCn3nc4c(c3C2=O)CN(C(=O)c2ccc(Cl)c(Cl)c2)[C@H](C)C4)o1 (some centres unmarked) [Example C224]		> 50 µM	0.326 µM
Cc1noc(C(C)N2CCn3nc4c(c3C2=O)CN(C(=O)c2ccc(Cl)c(Cl)c2)[C@H](C)C4)n1 (some centres unmarked) [Example C223]		> 50 µM	0.219 µM
C[C@@H]1Cc2nn3c(c2CN1C(=O)c1ccc(Cl)c(Cl)c1)C(=O)N(Cc1nccn1C)CC3 [Example C242]		> 50 µM	0.589 µM
C[C@@H]1Cc2nn3c(c2CN1C(=O)c1ccc(Cl)c(Cl)c1)C(=O)N(Cc1cccc(C(F)(F)F)n1)CC3 [Example C213]		37.5 µM	0.382 µM
C[C@@H]1Cc2nn3c(c2CN1C(=O)c1ccc(Cl)c(Cl)c1)C(=O)N(Cc1ncccc1C(F)(F)F)CC3 [Example C159]		36 µM	0.979 µM
Cc1cc(Cl)ccc1C(=O)N1CCc2nn3c(c2C1)C(=O)N(Cc1ccccn1)CC3 [Example C74]		> 50 µM	> 2.5 µM
C[C@@H]1Cc2nn3c(c2CN1C(=O)c1ccc(Cl)c(Cl)c1)C(=O)N(Cc1ccccc1F)CC3 [Example C80]		26.1 µM	0.05 µM
